Results as given in ChEMBL document CHEMBL6127088, “Novel 2-aminothiazole analogues both as polymyxin E synergist and antimicrobial agent against multidrug-resistant Gram-positive bacteria” (2024).
In brackets after ≈: the same amount, converted by molar mass. Activity calls are given as the source filed them. The rule behind the calls is not given here.

Legend:
[1] = test system: Cell membrane; test: Disruption of cell membrane integrity in Acinetobacter baumannii ATCC 19606 assessed as outer membrane expansion at 4 microg/ml incubated for 1 hrs by TEM analysis; format: subcellular; conditions: dose 4.0 µg/ml
[2] = test system: Staphylococcus aureus; test: Antibacterial activity against Staphylococcus aureus S1-1-38 assessed as inhibition of bacterial growth incubated for 18 hrs by broth microdilution method; format: functional
[3] = test system: Staphylococcus aureus; test: Antibacterial activity against methicillin-resistant Staphylococcus aureus ATCC 43300 assessed as inhibition of bacterial growth at 2 microg/ml measured after 24 hrs by time-kill assay; format: functional; design: scale not given: the % may be the effect or the level left; conditions: dose 2 µg/ml
[4] = test system: Pseudomonas aeruginosa; test: Synergistic antibacterial activity against Pseudomonas aeruginosa […] assessed as fold change in polymyxin-E MIC incubated for 18 hrs by broth microdilution method relative to polymyxin-E alone; format: functional
[5] = test system: Klebsiella pneumoniae; test: Synergistic antibacterial activity against Klebsiella pneumoniae KPN 943 assessed as polymyxin-E MIC at 4 microg/ml incubated for 18 hrs by broth microdilution method; format: functional; conditions: dose 4 µg/ml
[6] = test system: Cell membrane; test: Disruption of cell membrane integrity in Acinetobacter baumannii ATCC 19606 assessed as displacement of outer membrane at 4 microg/ml incubated for 1 hrs by TEM analysis; format: subcellular; conditions: dose 4.0 µg/ml
[7] = test system: Staphylococcus aureus; test: Antibacterial activity against methicillin-resistant Staphylococcus aureus ATCC 43300 assessed as inhibition of bacterial growth at 0.5 to 1 microg/ml measured between 8 to 24 hrs by time-kill assay; format: functional, organism-based; conditions: dose 0.5-1 µg/ml, time 8-24 hrs
[8] = test system: Acinetobacter baumannii; test: Antibacterial activity against Acinetobacter baumannii ATCC 19606 assessed as inhibition of bacterial growth at 4 microg/ml incubated for overnight in presence of 0.25 microg/ml polymyxin-E and measured at 24 hrs by time-kill assay; format: functional, organism-based; conditions: dose 4.0 µg/ml
[9] = test system: Pseudomonas aeruginosa; test: Synergistic antibacterial activity against Pseudomonas aeruginosa PAE 3887 assessed as fractional inhibitory concentration index at 4 microg/ml incubated for 18 to 20 hrs by chequerboard assay; format: functional; conditions: dose 4 µg/ml; time 18-20 hrs
[10] = test system: Cell membrane; test: Disruption of cell membrane integrity in Acinetobacter baumannii ATCC 19606 assessed as cellular vacuolization at 4 microg/ml incubated for 1 hrs in presence of polymyxin-E by TEM analysis; format: subcellular; conditions: dose 4.0 µg/ml
[11] = test system: Acinetobacter baumannii; test: Synergistic antibacterial activity against Acinetobacter baumannii ATCC 19606 infected in female Balb/c mouse model assessed as survival rate of mouse at 64 mg/kg, iv administered every 12 hrs in presence of polymyxin-E and measured for 7 days; format: functional
[12] = test system: Staphylococcus aureus; test: Antibacterial activity against Staphylococcus aureus LAC assessed as inhibition of bacterial growth incubated for 18 hrs by broth microdilution method; format: functional
[13] = test system: Pseudomonas aeruginosa; test: Synergistic antibacterial activity against Pseudomonas aeruginosa PAE 1051 assessed as polymyxin-E MIC at 4 microg/ml incubated for 18 hrs by broth microdilution method; format: functional; conditions: dose 4 µg/ml
[14] = test system: Listeria monocytogenes; test: Antibacterial activity against Listeria monocytogenes assessed as inhibition of bacterial growth incubated for 18 hrs by broth microdilution method; format: functional
[15] = test system: Staphylococcus aureus; test: Antibacterial activity against Staphylococcus aureus S1-1-33 assessed as inhibition of bacterial growth incubated for 18 hrs by broth microdilution method; format: functional
[16] = test system: Klebsiella pneumoniae; test: Synergistic antibacterial activity against Klebsiella pneumoniae SIPI-KPN-1712 assessed as fold change in polymyxin-E MIC incubated for 18 hrs by broth microdilution method relative to polymyxin-E alone; format: functional
[17] = test system: Staphylococcus aureus; test: Antibacterial activity against Staphylococcus aureus NCTC 8325 assessed as inhibition of bacterial growth incubated for 18 hrs by broth microdilution method; format: functional
[18] = test system: Acinetobacter baumannii; test: Antibacterial activity against Acinetobacter baumannii ATCC 19606 assessed as inhibition of bacterial growth at 16 microg/ml incubated for overnight by time-kill assay; format: functional, organism-based; conditions: dose 16.0 µg/ml
[19] = test system: Lacticaseibacillus rhamnosus; test: Antibacterial activity against Lactobacillus rhamnosus assessed as inhibition of bacterial growth incubated for 18 hrs by broth microdilution method; format: functional
[20] = test system: Pseudomonas aeruginosa; test: Synergistic antibacterial activity against Pseudomonas aeruginosa […] assessed as polymyxin-E MIC at 4 microg/ml incubated for 18 hrs by broth microdilution method; format: functional; conditions: dose 4 µg/ml
[21] = test system: Klebsiella pneumoniae; test: Synergistic antibacterial activity against Klebsiella pneumoniae KPN 943 assessed as fractional inhibitory concentration index at 4 microg/ml incubated for 18 to 20 hrs by chequerboard assay; format: functional; conditions: dose 4 µg/ml; time 18-20 hrs
[22] = test system: Pseudomonas aeruginosa; test: Synergistic antibacterial activity against Pseudomonas aeruginosa PAE 1051 assessed as fractional inhibitory concentration index at 4 microg/ml incubated for 18 to 20 hrs by chequerboard assay; format: functional; conditions: dose 4 µg/ml; time 18-20 hrs
[23] = test system: Klebsiella pneumoniae; test: Antibacterial activity against Klebsiella pneumoniae SIPI-KPN-1712 incubated for 18 hrs by broth microdilution method; format: functional
[24] = test system: Acinetobacter baumannii; test: Synergistic antibacterial activity against Acinetobacter baumannii ATCC 19606 assessed as fold change in polymyxin-E MIC incubated for 18 hrs by broth microdilution method relative to polymyxin-E alone; format: functional
[25] = test system: Acinetobacter baumannii; test: Antibacterial activity against Acinetobacter baumannii Ab 1613 incubated for 18 hrs by broth microdilution method; format: functional
[26] = test system: Enterococcus faecalis; test: Antibacterial activity against Enterococcus faecalis ATCC 51299 assessed as inhibition of bacterial growth incubated for 18 hrs by broth microdilution method; format: functional
[27] = test system: Acinetobacter baumannii; test: Antibacterial activity against Acinetobacter baumannii ATCC 19606 assessed as inhibition of bacterial growth at 4 microg/ml incubated for overnight in presence of 0.25 microg/ml polymyxin-E and measured with in 8 hrs by time-kill assay; format: functional, organism-based; conditions: dose 4.0 µg/ml
[28] = test system: Mycolicibacterium smegmatis; test: Antibacterial activity against Mycobacterium smegmatis ARC 700044 assessed as inhibition of bacterial growth incubated for 18 hrs by broth microdilution method; format: functional
[29] = test system: Staphylococcus aureus; test: Antibacterial activity against Staphylococcus aureus S1-1-7 assessed as inhibition of bacterial growth incubated for 18 hrs by broth microdilution method; format: functional
[30] = test system: Enterococcus faecalis; test: Antimicrobial activity against vancomycin-resistant Enterococcus faecalis ATCC 51299 assessed as minimum inhibitory concentration incubated for 18 hrs by broth microdilution method; format: functional
[31] = test system: Pseudomonas aeruginosa; test: Synergistic antibacterial activity against Pseudomonas aeruginosa PAE 1051 assessed as fold change in polymyxin-E MIC incubated for 18 hrs by broth microdilution method relative to polymyxin-E alone; format: functional
[32] = test system: Pseudomonas aeruginosa; test: Antibacterial activity against Pseudomonas aeruginosa PAE 1051 incubated for 18 hrs by broth microdilution method; format: functional
[33] = test system: Lactiplantibacillus plantarum; test: Antibacterial activity against Lactobacillus plantarum assessed as inhibition of bacterial growth incubated for 18 hrs by broth microdilution method; format: functional
[34] = test system: Acinetobacter baumannii; test: Synergistic antibacterial activity against Acinetobacter baumannii Ab 1611 assessed as fractional inhibitory concentration index at 4 microg/ml incubated for 18 to 20 hrs by chequerboard assay; format: functional; conditions: dose 4 µg/ml; time 18-20 hrs
[35] = test system: Cell membrane; test: Disruption of cell membrane integrity in Acinetobacter baumannii ATCC 19606 assessed as cytoplasmic content leakage at 4 microg/ml incubated for 1 hrs in presence of polymyxin-E by TEM analysis; format: subcellular; conditions: dose 4.0 µg/ml
[36] = test system: Enterococcus faecalis; test: Antibacterial activity against Enterococcus faecalis ATCC 29212 assessed as inhibition of bacterial growth incubated for 18 hrs by broth microdilution method; format: functional
[37] = test system: Klebsiella pneumoniae; test: Antibacterial activity against Klebsiella pneumoniae KPN 943 incubated for 18 hrs by broth microdilution method; format: functional

Question: `C/C(=N\Nc1ccccn1)c1csc(Nc2cc(F)cc(C(F)(F)F)c2)n1` was tested. Which Activity [1] did it give?
Answer: Active

Question: And the MIC [2]?
Answer: 0.5 mg/L (≈ 1.26 µM)

Question: And the Activity [3]?
Answer: 100%

Question: What about the “fold change (FC)” value [4] of the same compound?
Answer: 2

Question: What about the MIC [5] of the same compound?
Answer: 0.125 mg/L

Question: And the Activity [6]?
Answer: Active

Question: What about the Activity [7] of the same compound?
Answer: inactive

Question: What about the Activity [8] of the same compound?
Answer: Active

Question: What about the “fractional inhibitory concentration index (FICI)” value [9] of the same compound?
Answer: 0.094

Question: What about the Activity [10] of the same compound?
Answer: Active

Question: What about the survival at 64 mg/kg [11] of the same compound?
Answer: 100%

Question: What about the MIC [12] of the same compound?
Answer: 1 mg/L (≈ 2.53 µM)

Question: And the MIC [13]?
Answer: 0.25 mg/L

Question: What about the MIC [14] of the same compound?
Answer: 4 mg/L (≈ 10.1 µM)

Question: And the MIC [15]?
Answer: 2 mg/L (≈ 5.06 µM)

Question: And the “fold change (FC)” value [16]?
Answer: 16

Question: And the MIC [17]?
Answer: 0.5 mg/L (≈ 1.26 µM)

Question: And the Activity [18]?
Answer: inactive

Question: What about the MIC [19] of the same compound?
Answer: 0.5 mg/L (≈ 1.26 µM)

Question: What about the MIC [20] of the same compound?
Answer: 1 mg/L

Question: What about the “fractional inhibitory concentration index (FICI)” value [21] of the same compound?
Answer: 0.062

Question: What about the “fractional inhibitory concentration index (FICI)” value [22] of the same compound?
Answer: 0.281

Question: And the MIC [23]?
Answer: > 128 mg/L

Question: And the “fold change (FC)” value [24]?
Answer: 16

Question: And the MIC [25]?
Answer: > 128 mg/L

Question: What about the MIC [26] of the same compound?
Answer: 2 mg/L (≈ 5.06 µM)

Question: What about the Activity [27] of the same compound?
Answer: Active

Question: What about the MIC [28] of the same compound?
Answer: 2 mg/L (≈ 5.06 µM)

Question: And the MIC [29]?
Answer: 2 mg/L (≈ 5.06 µM)

Question: What about the MIC [30] of the same compound?
Answer: 1 mg/L (≈ 2.53 µM)

Question: What about the “fold change (FC)” value [31] of the same compound?
Answer: 4

Question: And the MIC [32]?
Answer: > 128 mg/L

Question: And the MIC [33]?
Answer: 1 mg/L (≈ 2.53 µM)

Question: And the “fractional inhibitory concentration index (FICI)” value [34]?
Answer: 0.094

Question: What about the Activity [35] of the same compound?
Answer: Active

Question: What about the MIC [36] of the same compound?
Answer: 2 mg/L (≈ 5.06 µM)

Question: What about the MIC [37] of the same compound?
Answer: > 128 mg/L
